Legend:
α1-GABAA receptor = experiment: Ligand-binding assay, competitive with radiolabeled flumazenil, cerebellum membranes; settings: Affinity for α1-GABAA receptor, rat cerebellum membranes, radiolabeled flumazenil 1 nM; for % Inhibition 10^−5M: 10^-5M test compound; for % Inhibition 10^−7M: 10^-7M test compound
Procedure: (§1) Ligand-binding assays. Determination of the affinity of test compounds for α1- and α2-GABAA receptor.
(§2) Male Sprague-Dawley rats weighing 200-250 g at the time of experiment were used. After decapitation of the animal, the cerebellum (tissue that mostly contains α1-GABAA receptor) and spinal cord (tissue that mostly contains α2-GABAA receptor) were removed. The membranes were prepared according to the method by J. Lameh et al. (Prog. Neuro-Psychopharmacol. Biol. Psychiatry, 24, 979-991, 2000) and H. Noguchi et al. (Eur. J. Pharm., 434, 21-28, 2002). Once the tissues weighed, they were suspended in 50 mM Tris.HCl (pH 7.4), 1:40 (w/v), or sucrose 0.32 M in the case of spinal cord, homogenized and then centrifuged at 20,000 g for 10 min at 7° C. twice. The resulting pellet was resuspended under the same conditions and centrifuged again. The pellet was finally resuspended on a minimum volume and kept at −80° C. overnight. On the next day, the process was repeated until the final pellet was resuspended at a ratio of 1:10 (w/v) in the case of cerebellum and at a ratio of 1:5 (w/v) in the case of spinal cord.
(§3) Affinity was determined by competitive tests using radiolabeled flumazenil as ligand. The tests were performed according to the methods described by S. Arbilla et al. (Eur. J. Pharmacol., 130, 257-263, 1986); and Y. Wu et al. (Eur. J. Pharmacol., 278, 125-132, 1995) using 96-well microtiter plates. The membranes containing the study receptors, flumazenil (radiolabeling at a final concentration of 1 nM) and ascending concentrations of test compounds (in a total volume of 230 μL in 50 mM [ph 7.4] Tris.HCl buffer) were incubated. Simultaneously, the membranes were only incubated with the radiolabeled flumazenil (total binding, 100%) and in the presence of an elevated concentration of unradiolabeled flumazenil (non-specific binding, % estimation of radiolabeled ligand). The reactions started on adding the radiolabeled ligand followed by incubation for 60 minutes at 4° C. At the end of the incubation period, 200 μL of reaction were transferred to a multiscreen plate (Millipore) and filtered using a vacuum manifold and then washed three times with cold test buffer. The multiscreen plates were equipped with a GF/B filter that retained the membranes containing the receptors and the radiolabeled ligand which has been bound to the receptors. After washing, the plates were left till dry. Once dried, scintillation liquid was added and left under stirring overnight. The next day the plates were counted using a Perkin-Elmer Microbeta scintillation counter.
(§4) For analysis of the results the percentage of specific binding for every concentration of test compound was calculated as follows:
(§5) % specific binding=(X−N/T−N)×100
(§6) where, X: amount of bound ligand for every concentration of compound. T: total binding, maximum amount bound to the radiolabeled ligand. N: non-specific binding, amount of radiolabeled ligand bound in a non-specific way irrespective of the receptor used.
(§7) Every concentrations of compound were tested in triplicate and their mean values were used to determine the experimental values of % specific binding versus the concentration of compound. Affinity data are expressed as % inhibition at 10^-5M and 10^-7M concentrations.

α2-GABAA receptor = experiment: Ligand-binding assay, competitive with radiolabeled flumazenil, spinal cord membranes; settings: Affinity for α2-GABAA receptor, rat spinal cord membranes, radiolabeled flumazenil 1 nM; for % Inhibition 10^−5M: 10^-5M test compound; for % Inhibition 10^−7M: 10^-7M test compound
Procedure: as §1, §2, §3, §4, §5, §6, §7

mice = experiment: In vivo predictive sedation-hypnosis test (inhibition of traveled distance); set-up: species or system mouse; settings: male CD1 mice; single equimolecular intraperitoneal doses; traveled distance over 30 min after dosing (first 5 min discarded) versus control
Procedure: In vivo determination of predictive sedative-hypnotic action.
The in vivo effects of these compounds were assessed by a predictive sedation-hypnosis test in mice (D. J. Sanger et al., Eur. J. Pharmacol., 313, 35-42, 1996; and G. Griebel et al., Psychopharmacology, 146, 205-213, 1999).
Groups of 5-8 male CD1 mice, weighing 22-26 g at the time of test, were used. The test compounds were administered in single equimolecular intraperitoneal doses, suspended in 0.25% agar with one drop of Tween in a volume of 10 mL/kg. Control animals received the vehicle alone. Using a Smart System (Panlab, S. L., Spain) the traveled distance in cm is recorded for each mouse at 5-min intervals during a period of 30 minutes after dosing. The inhibition percentage of traveled distance of treated animals versus control animals (the first 5 min were discarded) was calculated.

Compound | % Inhibition 10^−5M (α1-GABAA receptor) [%] | % Inhibition 10^−7M (α1-GABAA receptor) [%] | % Inhibition 10^−5M (α2-GABAA receptor) [%] | % Inhibition 10^−7M (α2-GABAA receptor) [%] | % Inhibition Motor Activity (mice) [%]
Cc1ccc(-c2nc3ccc(C)cn3c2CNC(=O)c2ccncc2)cc1 [Example 7, N-(6-Methyl-2-p-tolyl-imidazo[1,2-a]pyridin-3-ylmethyl)-isonicotinamide] | 98.0 | 36.5 | 81.3 | 0.0 | 72.45
Cc1ccc(-c2nc3ccc(C)cn3c2CNC(=O)c2ccco2)cc1 [Example 4, Furan-2-carboxylic acid (6-methyl-2-p-tolyl-imidazo[1,2-a]pyridin-3-ylmethyl)-amide] | 97.4 | 19.4 | 82.9 | 0.0 | 73.28
Cc1ccc(-c2nc3ccc(C)cn3c2CN(C)C(=O)c2cscn2)cc1 [Example 94, Thiazole-4-carboxylic acid methyl-(6-methyl-2-p-tolyl-imidazo[1,2-a]pyridin-3-ylmethyl)-amide] | 99.5 | 78.5 | 94.5 | 33.2 | 89.33
Cc1ccc(-c2nc3ccc(C)cn3c2CNC(=O)C2CC2)cc1 [Example 13, Cyclopropanecarboxylic acid (6-methyl-2-p-tolyl-imidazo[1,2-a]pyridin-3-ylmethyl)-amide] | 97.6 | 53.8 | 67.8 | 0.0 | 90.36
Cc1ccc(-c2nc3ccc(C)cn3c2CN(C)C(=O)c2cnoc2C)cc1 [Example 99, 5-Methyl-isoxazole-4-carboxylic acid methyl-(6-methyl-2-p-tolyl-imidazo[1,2-a]pyridin-3-ylmethyl)-amide] | 99.2 | 52.5 |  |  | 13.33
Cc1ccc(-c2nc3ccc(C)cn3c2CNC(=O)c2cc(C)n(C3CC3)c2C)cc1 [Example 84, 1-Cyclopropyl-2,5-dimethyl-1H-pyrrole-3-carboxylic acid (6-methyl-2-p-tolyl-imidazo[1,2-a]pyridin-3-ylmethyl)-amide] |  |  |  |  | 36.32
Cc1ccc(-c2nc3ccc(C)cn3c2CNC(=O)c2c(C)noc2C)cc1 [Example 90, 3,5-Dimethyl-isoxazole-4-carboxylic acid (6-methyl-2-p-tolyl-imidazo[1,2-a]pyridin-3-ylmethyl)-amide] | 84.5 | 0.0 | 31.8 | 0.0 | 82.12
Cc1ccc(-c2nc3ccc(C)cn3c2CN(C)C(=O)c2ccc([N+](=O)[O-])cc2)cc1 [Example 31, N-Methyl-N-(6-methyl-2-p-tolyl-imidazo[1,2-a]pyridin-3-ylmethyl)-4-nitro-benzamide] | 82.5 | 1.2 | 38.8 | 0.0 | 69.67
Cc1ccc(-c2nc3ccc(C)cn3c2CNC(=O)c2ccc(C)n2C)cc1 [Example 6, 1,5-Dimethyl-1H-pyrrole-2-carboxylic acid (6-methyl-2-p-tolyl-imidazo[1,2-a]pyridin-3-ylmethyl)-amide] | 96.1 | 22.5 | 64.4 | 0.0 | 78.09
C#CCN(Cc1c(-c2ccc(C)cc2)nc2ccc(C)cn12)C(=O)C1CC1 [Example 42, Cyclopropanecarboxylic acid (6-methyl-2-p-tolyl-imidazo[1,2-a]pyridin-3-ylmethyl)-prop-2-ynyl-amide] | 92.7 | 12.4 | 49.7 | 0.0 | 40.35
Cc1ccc(-c2nc3ccc(C)cn3c2CN(C)C(=O)c2ccc3ccccc3n2)cc1 [Example 35, Quinoline-2-carboxylic acid methyl-(6-methyl-2-p-tolyl-imidazo[1,2-a]pyridin-3-ylmethyl)-amide] | 67.1 | 31.8 | 3.7 | 0.0 | 33.19
Cc1ccc(-c2nc3ccc(C)cn3c2CNC(=O)c2nccn2C)cc1 [Example 78, 1-Methyl-1H-imidazole-2-carboxylic acid (6-methyl-2-p-tolyl-imidazo[1,2-a]pyridin-3-ylmethyl)-amide] | 100.2 | 97.9 | 98.8 | 85.9 | 88.10
Cc1ccc(-c2nc3ccc(C)cn3c2CNC(=O)c2ncc(F)cc2F)cc1 [Example 20, 3,5-Difluoro-pyridine-2-carboxylic acid (6-methyl-2-p-tolyl-imidazo[1,2-a]pyridin-3-ylmethyl)-amide] | 99.8 | 65.9 | 95.2 | 0.0 | 91.99
Cc1ccc(-c2nc3ccc(C)cn3c2CNC(=O)c2ccc(N(C)C)cc2)cc1 [Example 3, 4-Dimethylamino-N-(6-methyl-2-p-tolyl-imidazo[1,2-a]pyridin-3-ylmethyl)-benzamide] | 73.9 | 21.4 | 17.4 | 0.0 | 45.59
Cc1ccc(-c2nc3ccc(C)cn3c2CN(C)C(=O)c2cnccn2)cc1 [Example 96, Pyrazine-2-carboxylic acid methyl-(6-methyl-2-p-tolyl-imidazo[1,2-a]pyridin-3-ylmethyl)-amide] | 99.9 | 80.5 |  |  | 44.04
Cc1ccc(-c2nc3ccc(C)cn3c2CNC(=O)c2ccsc2)cc1 [Example 82, Thiophene-3-carboxylic acid (6-methyl-2-p-tolyl-imidazo[1,2-a]pyridin-3-ylmethyl)-amide] | 98.7 | 33.0 |  |  | 61.93
Cc1ccc(-c2nc3ccc(C)cn3c2CNC(=O)/C=C/c2ccco2)cc1 [Example 80, 3-Furan-2-yl-N-(6-methyl-2-p-tolyl-imidazo[1,2-a]pyridin-3-ylmethyl)-acrylamide] | 88.9 | 0.0 |  |  | 61.89
Cc1ccc(-c2nc3ccc(C)cn3c2CNC(=O)c2csc([N+](=O)[O-])c2)cc1 [Example 88, 5-Nitro-thiophene-3-carboxylic acid (6-methyl-2-p-tolyl-imidazo[1,2-a]pyridin-3-ylmethyl)-amide] | 96.2 | 0.0 |  |  | 51.87
Cc1ccc(-c2nc3ccc(C)cn3c2CNC(=O)c2cc(F)c(Cl)cc2Cl)cc1 [Example 87, 2,4-Dichloro-5-fluoro-N-(6-methyl-2-p-tolyl-imidazo[1,2-a]pyridin-3-ylmethyl)-benzamide] |  |  |  |  | 48.13
